In experiment [1] the test system is ZR-75-1. In words: Inhibition of cell proliferation (GI50, CellTiter 96 AQueous One) in ZR-75-1 cells. Format: cell-based. To be noted: Homo sapiens, ZR-75-1, 48 h; read-out: GI50 (dose for 50% inhibition of cell proliferation). As to the method: (§1) T-47D and ZR-75-1 cells were grown and harvested as in Example 1. An aliquot of 90 μl of cells (2.2×10^4 cells/ml) was added to a well of a 96-well microtiter plate containing 10 μl of a 10% DMSO in RPMI-1640 media solution containing 1 nM to 100 μM of 5-chloro-3-methyl-indole-2-carboxylic acid (4-nitrobenzylidene)-hydrazide (Compound A) or 5-chloro-3-phenyl-indole-2-carboxylic acid (4-nitrobenzylidene)-hydrazide (Compound B) (0.1 nM to 10 μM final). An aliquot of 90 μl of cells was added to a well of a 96-well microtiter plate containing 10 μl of a 10% DMSO in RPMI-1640 media solution without compound as the control sample for maximal cell proliferation (AMax). The samples were mixed by agitation and then incubated at 37° C. for 48 h in a 5% CO2-95% humidity incubator. […] Using an absorbance plate reader (Model 1420 Wallac Instruments), an initial reading (T=0) was made approximately 1-2 min after addition of the solution, employing absorbance at 490 nm. This determines the possible background absorbance of the test compounds. No absorbance for 5-chloro-3-methyl-indole-2-carboxylic acid (4-nitrobenzylidene)-hydrazide or 5-chloro-3-phenyl-indole-2-carboxylic acid (4-nitrobenzylidene)-hydrazide was found at 490 nm. After the 2-4 h incubation, the samples were read for absorbance as above (ATest). […]

In the next experiment the test system is T-47D. In words: Inhibition of cell proliferation (GI50, CellTiter 96 AQueous One) in T-47D cells. Format: cell-based. Conditions: Homo sapiens, T47D, 48 h, read-out: GI50 (dose for 50% inhibition of cell proliferation). As to the method: as §1
For experiment [2], the system named is ZR-75-1. In words: Caspase cascade activation (N-(Ac-DEVD)-N'-ethoxycarbonyl-R110 fluorogenic substrate) in ZR-75-1 cells. Type of experiment: cell-based, Human. Conditions: ZR-75-1, 24 h incubation with compound. As to the method:
Human breast cancer cell lines T-47D and ZR-75-1 were grown according to media component mixtures designated by American Type Culture Collection +10% FCS (Invitrogen Corporation, Life Technologies division), in a 5% CO2-95% humidity incubator at 37° C. T-47D and ZR-75-1 cells were maintained at a cell density between 30 and 80% confluency at a cell density of 0.1 to 0.6×10^6 cells/ml. Cells were harvested at 600×g and resuspended at 0.65×10^6 cells/ml into appropriate media +10% FCS. An aliquot of 45 μl of cells was added to a well of a 96-well microtiter plate containing 5 μl of a 10% DMSO in RPMI-1640 media solution containing 0.16 to 100 μM of 5-chloro-3-methyl-indole-2-carboxylic acid (4-nitrobenzylidene)-hydrazide (Compound A) or other test compound (0.016 to 10 μM final). An aliquot of 45 μl of cells was added to a well of a 96-well microtiter plate containing 5 μl of a 10% DMSO in RPMI-1640 media solution without test compound as the control sample. The samples were mixed by agitation and then incubated at 37° C. for 24 h in a 5% CO2-95% humidity incubator. After incubation, the samples were removed from the incubator and 50 μl of a solution containing 20 μM of N-(Ac-DEVD)-N′-ethoxycarbonyl-R110 fluorogenic substrate (Cytovia, Inc.; WO99/18856), 20% sucrose (Sigma), 20 mM DTT (Sigma), 200 mM NaCl (Sigma), 40 mM Na PIPES buffer pH 7.2 (Sigma), and 500 μg/ml lysolecithin (Calbiochem) was added. The samples were mixed by agitation and incubated at room temperature. Using a fluorescent plate reader (Model 1420 Wallac Instruments), an initial reading (T=0) was made approximately 1-2 min after addition of the substrate solution, employing excitation at 485 nm and emission at 530 nm, to determine the background fluorescence of the control sample. After the 3 h incubation, the samples were read for fluorescence as above (T=3 h).
The Relative Fluorescence Unit values (RFU) were used to calculate the sample readings as follows: RFU(T=3h)−Control RFU(T=0)=Net RFU(T=3h)
The activity of caspase cascade activation was determined by the ratio of the net RFU value for 5-chloro-3-methyl-indole-2-carboxylic acid (4-nitrobenzylidene)-hydrazide (Compound A) or other test compound to that of control samples. The EC50 (nM) was determined by a sigmoidal dose-response calculation (Prism 2.0, GraphPad Software Inc.).

1 compound from US6747052B2, “Substituted indole-2-carboxylic acid benzylidene-hydrazides and analogs as activators of caspases and inducers of apoptosis and the use thereof” (Cytovia, Inc., priority 2000, dated 2004) can be followed below.

pEC50: −log10 of the molar value.

On to `Cc1c(C(=O)NN=Cc2ccc([N+](=O)[O-])cc2)[nH]c2ccc(Cl)cc12` [Compound A, 5-chloro-3-methyl-indole-2-carboxylic acid (4-nitrobenzylidene)-hydrazide], for which the GI50 in the experiment on ZR-75-1 [1] amounted to 12000 nM; in the experiment with T-47D it was 2000 nM. Moreover, the pEC50 in the experiment on ZR-75-1 [2] (Homo sapiens) was 6.27. Also, in the experiment with ZR-75-1 [2] (3 h substrate reading), the “Caspase activity Ratio (net RFU of test compound to control)” value is listed as 7.0.
